From US7223751B2, “Sulfonamide derivatives, intermediate thereof, its preparation methods, and pharmaceutical composition comprising the same” (Kolon Ind. Inc., priority 2001, dated 2007)

How the values were obtained:
[1] = biological target: T1, MMP-1 (Homo sapiens, UniProt P03956); test: MMP inhibiting activity, fluorescence assay; assay type: biochemical; conditions: read-out: Enzyme inhibiting constant IC50 MMP-1
T1 sequence (P03956 100-469): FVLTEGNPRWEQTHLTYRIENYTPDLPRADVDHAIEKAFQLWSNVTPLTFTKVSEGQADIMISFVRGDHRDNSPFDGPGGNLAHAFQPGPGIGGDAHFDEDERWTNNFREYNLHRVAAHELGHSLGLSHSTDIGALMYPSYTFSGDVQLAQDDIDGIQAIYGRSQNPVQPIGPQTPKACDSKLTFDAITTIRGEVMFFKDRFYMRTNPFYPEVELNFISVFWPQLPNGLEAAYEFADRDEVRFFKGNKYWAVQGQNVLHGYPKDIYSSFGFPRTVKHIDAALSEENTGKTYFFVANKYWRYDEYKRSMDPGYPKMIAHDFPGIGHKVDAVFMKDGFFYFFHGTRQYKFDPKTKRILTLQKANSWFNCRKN
Protocol: (§1) Inhibitory activities of all the enzymes were measured similarly to the MMP-2 activity measuring method shown below. Prior to measuring, proMMP-2 was treated with 1 mM p-aminophenyl mercuricacetate at 37° C. for 45 minutes to activate it. The ProMMP-9 was activated to an enzyme with MMP-3, and stored at −80° C. until used.
(§2) MMP activities were measured by fluorescence assay by changing a microtiter plate formate according to the reported method (Knight, C. G., Willenbrock, F., Murphy, G. A., FEBS Lett. 1992, 296, 263-266). On a dynatech MicroFLUOR plate, a buffer solution comprising 50 Mm Tris-HCl pH 7.5, 10 mM CaCl2, 0.15 M NaCl, 0.05% Brij, and 1-8 μM of a substrate (Mca-Pro-Leu-Gly-Leu-Dpa-Ala-Arg-NH2), and various concentrations of inhibitors were introduced, and it was reacted with activated enzymes at 37° C. for 20-30 minutes. Reaction was terminated by putting the reactant in 50 mM EDTA, and then fluorescence was measured with a spectrofluorometer attached to a microplate reader (λex 328 nm, λ em 393 nm). The inhibiting activity degree was indicated by an IC50 value, which is a concentration inhibiting activity by 50% compared to the control.

[2] = biological target: MMP-13 (Homo sapiens, UniProt P45452); test: MMP inhibiting activity, fluorescence assay; assay type: biochemical; conditions: read-out: Enzyme inhibiting constant IC50 MMP-13
Protocol: as §1, §2

[3] = biological target: T2, MMP-2 (Homo sapiens, UniProt P08253); test: MMP inhibiting activity, fluorescence assay; assay type: biochemical; conditions: read-out: Enzyme inhibiting constant IC50 MMP-2
T2 sequence (P08253 110-660): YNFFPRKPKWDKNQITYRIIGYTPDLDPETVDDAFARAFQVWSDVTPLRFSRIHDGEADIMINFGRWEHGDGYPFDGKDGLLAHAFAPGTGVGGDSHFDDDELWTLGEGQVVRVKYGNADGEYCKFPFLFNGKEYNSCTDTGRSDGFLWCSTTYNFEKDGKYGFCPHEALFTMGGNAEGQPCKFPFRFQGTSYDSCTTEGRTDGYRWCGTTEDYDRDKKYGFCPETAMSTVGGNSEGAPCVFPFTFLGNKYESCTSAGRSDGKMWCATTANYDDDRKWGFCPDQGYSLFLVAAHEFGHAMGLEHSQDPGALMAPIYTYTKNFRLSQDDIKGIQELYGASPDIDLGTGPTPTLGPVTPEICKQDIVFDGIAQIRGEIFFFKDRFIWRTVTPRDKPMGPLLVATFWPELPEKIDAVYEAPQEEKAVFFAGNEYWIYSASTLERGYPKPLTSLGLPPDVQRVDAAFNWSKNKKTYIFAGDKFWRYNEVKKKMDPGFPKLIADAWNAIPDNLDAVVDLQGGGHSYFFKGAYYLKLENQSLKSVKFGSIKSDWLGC
Protocol: as §1, §2

[4] = system: HUVEC (human umbilical vein endothelial cell) cells; test: Tube formation activity on matrigel; assay type: cell-based; set-up: key: −: control; ±: tube almost resembles control; +: inhibition; ++: significant inhibition; +++: complete inhibition; conditions: 16-24 hours
Protocol: In a culture flask previously coated with gelatin, HUVEC (human umbilical vein endothelial cell) cells cultured with a M199 medium (containing 20% FBS, 3 ng/ml bFGF, 100 μg/ml heparin) were treated with trypsin/EDTA, and then number of cells are counted so that number of cells may be 2×10^4 cells/well in a 96-well plate previously coated with matrigel. Samples were then added and cultured in a CO2 culture medium at 37° C. for 16-24 hours.

Molecule | IC50 [1] [nM] | IC50 [2] [nM] | IC50 [3] [nM] | Tube Formation ([4]; concentration 0.5 μM) | Tube Formation ([4]; concentration 5 μM) | Tube Formation ([4]; concentration 50 μM) | Tube Formation ([4]; concentration 100 μM)
CCCCN1CC(C(=O)O)N(S(=O)(=O)c2ccc(-c3ccc(Br)cc3)cc2)CC1=O (centres unmarked) [Example 49, 1-(4′-Bromo-biphenyl-4-sulfonyl)-4-butyl-5-oxo-piperazine-2-carboxylic acid] | 114 | 1130 | 9 | ± | ++ | ++ | 
COc1ccc(S(=O)(=O)N2CC(=O)N(CCN3CCOCC3)CC2C(=O)NO)cc1.Cl (centres unmarked) [Example 11, 1-(4-Methoxy-benzenesulfonyl)-4-(2-morpholin-4-yl-ethyl)-5-oxo-piperazine-2-hydroxamate hydrochloride] |  |  |  |  | ± | + | 
4-Butyl-1-(4-methoxy-benzenesulfonyl)-5-oxo-piperazine-2-hydroxamate [Example 19] | 47 | 14 | 15 |  | + | + | ++
COc1ccc(S(=O)(=O)N2CC(=O)N(CCc3ccccn3)CC2C(=O)NO)cc1 (centres unmarked) [Example 15] | > 10000 | > 10000 | > 10000 |  | + | + | ++
C#CCN1CC(C(=O)O)N(S(=O)(=O)c2ccc(-c3ccc(Br)cc3)cc2)CC1=O (centres unmarked) [Example 35, 1-(4′-Bromo-biphenyl-4-sulfonyl)-5-oxo-4-prop-2-ynyl-piperazine-2-carboxylic acid] |  |  |  | ++ | ++ | +++ | 
O=C(O)C1CN(CCCCCCO)C(=O)CN1S(=O)(=O)c1ccc(-c2ccc(Br)cc2)cc1 (centres unmarked) [Example 51, 1-(4′-Bromo-biphenyl-4-sulfonyl)-4-(6-hydroxy-hexyl)-5-oxo-piperazine-2-carboxylic acid] | 29 | 19 | 5 |  |  |  | 
CCCCOCCCN1CC(C(=O)O)N(S(=O)(=O)c2ccc(-c3ccc(Br)cc3)cc2)CC1=O (centres unmarked) [Example 41, 1-(4′-Bromo-biphenyl-4-sulfonyl)-4-(3-butoxy-propyl)-5-oxo-piperazine-2-carboxylic acid] |  |  |  | ++ | ++ | +++ | 
COc1ccc(S(=O)(=O)N2CC(=O)N(CCN3CCCCC3)CC2C(=O)NO)cc1.Cl (centres unmarked) [Example 9, 1-(4-Methoxy-benzenesulfonyl)-5-oxo-4-(2-piperidin-1-yl-ethyl)-piperazine-2-hydroxamate hydrochloride] |  |  |  |  | − | ± | 
CCCCCCCCCCCCN1CC(C(=O)O)N(S(=O)(=O)c2ccc(-c3ccc(Br)cc3)cc2)CC1=O (centres unmarked) [Example 39, 1-(4′-Bromo-biphenyl-4-sulfonyl)-4-dodecyl-5-oxo-piperazine-2-carboxylic acid] | 8270 | 2350 | 567 | − | − | + | 
4-Allyl-1-(4-methoxy-benzenesulfonyl)-5-oxo-piperazine-2-hydroxamate [Example 21] |  |  |  |  | ± | + | 
CCCCCCCCN1CC(C(=O)O)N(S(=O)(=O)c2ccc(-c3ccc(Br)cc3)cc2)CC1=O (centres unmarked) [Example 33, 1-(4′-Bromo-biphenyl-4-sulfonyl)-4-octyl-5-oxo-piperazine-2-carboxylic acid] | 2430 | 2100 | 80 |  | + | ++ | +++
4-Cyclopropyl-1-(4-methoxy-benzenesulfonyl)-5-oxo-piperazine-2-hydroxamate [Example 17] |  |  |  |  | + | + | ++
CCCCCCCCCCN1CC(C(=O)O)N(S(=O)(=O)c2ccc(-c3ccc(Br)cc3)cc2)CC1=O (centres unmarked) [Example 47, 1-(4′-Bromo-biphenyl-4-sulfonyl)-4-decyl-5-oxo-piperazine-2-carboxylic acid] | 5400 | 2460 | 140 | ++ | ++ | +++ | 
CCCCN1CC(C(=O)O)N(S(=O)(=O)c2ccc(OC)cc2)CC1=O (centres unmarked) [Example 26, 4-Butyl-1-(4-methoxy-benzenesulfonyl)-5-oxo-piperazine-2-carboxylic acid] |  |  |  |  | ± | + | ++
CCCCCCCCN1CC(C(=O)O)N(S(=O)(=O)c2ccc(-n3cccc3)cc2)CC1=O (centres unmarked) [Example 58, 4-Octyl-5-oxo-1-(4-pyrrol-1-yl-benzenesulfonyl)-piperazine-2-carboxylic acid] |  |  |  | ± | ++ | ++ | 
O=C(O)C1CN(Cc2ccccc2)C(=O)CN1S(=O)(=O)c1ccc(-c2ccc(Br)cc2)cc1 (centres unmarked) [Example 37, 4-Benzyl-1-(4′-bromo-biphenyl-4-sulfonyl)-5-oxo-piperazine-2-carboxylic acid] |  |  |  | ++ | ++ | +++ | 
1-(4-Methoxy-benzenesulfonyl)-4-methyl-5-oxo-piperazine-2-hydroxamate [Example 25] | 82 | 16 | 3 |  | − | − | +
CCCCCCCCC=CCCCCCCCCN1CC(C(=O)O)N(S(=O)(=O)c2ccc(-c3ccc(Br)cc3)cc2)CC1=O (centres unmarked) [Example 53, 1-(4′-Bromo-biphenyl-4-sulfonyl)-4-octadec-9-enyl-5-oxo-piperazine-2-carboxylic acid] | > 10000 | > 10000 | 220 |  |  |  | 
1-(4-Methoxy-benzenesulfonyl)-5-oxo-4-prop-2-ynyl-piperazine-2-hydroxamate [Example 23] |  |  |  |  | + | ++ | +++
CN(C)CCCN1CC(C(=O)O)N(S(=O)(=O)c2ccc(-c3ccc(Br)cc3)cc2)CC1=O (centres unmarked) [Example 43, 1-(4′-Bromo-biphenyl-4-sulfonyl)-4-(3-dimethylamino-propyl)-5-oxo-piperazine-2-carboxylic acid] |  |  |  | + | ++ | ++ | 
COc1ccc(S(=O)(=O)N2CC(=O)N(Cc3ccccn3)CC2C(=O)NO)cc1.Cl (centres unmarked) [Example 13, 1-(4-Methoxy-benzenesulfonyl)-5-oxo-4-pyridin-2-yl-methyl-piperazine-2-hydroxamate hydrochloride] |  |  |  |  | ± | + | +
CCCCCCN1CC(C(=O)O)N(S(=O)(=O)c2ccc(-c3ccc(Br)cc3)cc2)CC1=O (centres unmarked) [Example 45, 1-(4′-Bromo-biphenyl-4-sulfonyl)-4-hexyl-5-oxo-piperazine-2-carboxylic acid] | 95 | 82 | 11 | ++ | ++ | ++ | 
1-Cyclopropyl-5-hydroxymethyl-4-(4-methoxy-benzenesulfonyl)-5-oxo-piperazin-2-one [Example 27] |  |  |  |  | ++ | ++ | 
